Data published in US8592175B2, “Nitroreductase enzymatic substrates” (bioMérieux, S.A., priority 2009, dated 2013).

Key:
Experiment in all cases: Color, fluorescence and growth of colonies on Columbia medium with nitroreductase substrate
Type in all cases: cell-based
[1] = tested on: Bacillus subtilis NCTC 9 372; set-up: key to Growth: NG: no growth; 0.5: low growth; 1: moderate growth; 2: good growth; key to Fluo.: fluorescence of the colonies / Col.: color of the colonies: —: no color/fluorescence; conditions: 40 mg substrate in 400 ml Columbia medium, 24 hours at 37° C.; for Fluo.: fluorescence of the colonies: UV lamp at 365 nm
Description: (§1) 40 mg of each of the substrates were dissolved in 4 ml of dimethylsulfoxide and added to 400 ml of previously autoclaved Columbia medium. The 5 media were distributed in Petri dishes 90 mm in diameter at the rate of 20 ml per dish. Seventeen strains of microorganisms obtained from collections and belonging to various species of bacteria and yeasts are inoculated as spots of about 10 000 colony forming units. The media are incubated for 24 hours at 37° C. and then the colonies formed are examined visually and under a UV lamp at 365 nm.

[2] = tested on: Candida albicans ATCC 90 028; set-up: key to Growth: NG: no growth; 0.5: low growth; 1: moderate growth; 2: good growth; key to Fluo.: fluorescence of the colonies / Col.: color of the colonies: —: no color/fluorescence; conditions: 40 mg substrate in 400 ml Columbia medium, 24 hours at 37° C.; for Fluo.: fluorescence of the colonies: UV lamp at 365 nm; for Col.: color of the colonies: examined visually
Description: as §1

[3] = tested on: Candida glabrata NCPF 3 943; set-up: key to Growth: NG: no growth; 0.5: low growth; 1: moderate growth; 2: good growth; key to Fluo.: fluorescence of the colonies / Col.: color of the colonies: —: no color/fluorescence; conditions: 40 mg substrate in 400 ml Columbia medium, 24 hours at 37° C.; for Fluo.: fluorescence of the colonies: UV lamp at 365 nm; for Col.: color of the colonies: examined visually
Description: as §1

[4] = tested on: Enterococcus faecalis NCTC 775; set-up: key to Growth: NG: no growth; 0.5: low growth; 1: moderate growth; 2: good growth; key to Fluo.: fluorescence of the colonies / Col.: color of the colonies: —: no color/fluorescence; conditions: 40 mg substrate in 400 ml Columbia medium, 24 hours at 37° C.; for Fluo.: fluorescence of the colonies: UV lamp at 365 nm
Description: as §1

[5] = tested on: Enterococcus faecium NCTC 7 171; set-up: key to Growth: NG: no growth; 0.5: low growth; 1: moderate growth; 2: good growth; key to Fluo.: fluorescence of the colonies / Col.: color of the colonies: —: no color/fluorescence; conditions: 40 mg substrate in 400 ml Columbia medium, 24 hours at 37° C.; for Fluo.: fluorescence of the colonies: UV lamp at 365 nm; for Col.: color of the colonies: examined visually
Description: as §1

[6] = tested on: Listeria monocytogenes NCTC 11 994; set-up: key to Growth: NG: no growth; 0.5: low growth; 1: moderate growth; 2: good growth; key to Fluo.: fluorescence of the colonies / Col.: color of the colonies: —: no color/fluorescence; conditions: 40 mg substrate in 400 ml Columbia medium, 24 hours at 37° C.; for Fluo.: fluorescence of the colonies: UV lamp at 365 nm; for Col.: color of the colonies: examined visually
Description: as §1

[7] = tested on: Providencia rettgeri NCTC 7 475; set-up: key to Growth: NG: no growth; 0.5: low growth; 1: moderate growth; 2: good growth; key to Fluo.: fluorescence of the colonies / Col.: color of the colonies: —: no color/fluorescence; conditions: 40 mg substrate in 400 ml Columbia medium, 24 hours at 37° C.; for Fluo.: fluorescence of the colonies: UV lamp at 365 nm; for Col.: color of the colonies: examined visually
Description: as §1

[8] = tested on: Pseudomonas aeruginosa NCTC 10 662; set-up: key to Growth: NG: no growth; 0.5: low growth; 1: moderate growth; 2: good growth; key to Fluo.: fluorescence of the colonies / Col.: color of the colonies: —: no color/fluorescence; conditions: 40 mg substrate in 400 ml Columbia medium, 24 hours at 37° C.; for Fluo.: fluorescence of the colonies: UV lamp at 365 nm; for Col.: color of the colonies: examined visually
Description: as §1

[9] = tested on: Salmonella typhimurium NCTC 74; set-up: key to Growth: NG: no growth; 0.5: low growth; 1: moderate growth; 2: good growth; key to Fluo.: fluorescence of the colonies / Col.: color of the colonies: —: no color/fluorescence; conditions: 40 mg substrate in 400 ml Columbia medium, 24 hours at 37° C.; for Fluo.: fluorescence of the colonies: UV lamp at 365 nm; for Col.: color of the colonies: examined visually
Description: as §1

[10] = tested on: Staphylococcus aureus NCTC 11 939; set-up: key to Growth: NG: no growth; 0.5: low growth; 1: moderate growth; 2: good growth; key to Fluo.: fluorescence of the colonies / Col.: color of the colonies: —: no color/fluorescence; conditions: 40 mg substrate in 400 ml Columbia medium, 24 hours at 37° C.; for Fluo.: fluorescence of the colonies: UV lamp at 365 nm; for Col.: color of the colonies: examined visually
Description: as §1

[11] = tested on: Staphylococcus aureus NCTC 6 571; set-up: key to Growth: NG: no growth; 0.5: low growth; 1: moderate growth; 2: good growth; key to Fluo.: fluorescence of the colonies / Col.: color of the colonies: —: no color/fluorescence; conditions: 40 mg substrate in 400 ml Columbia medium, 24 hours at 37° C.; for Fluo.: fluorescence of the colonies: UV lamp at 365 nm; for Col.: color of the colonies: examined visually
Description: as §1

[12] = tested on: Staphylococcus epidermidis NCTC 11 047; set-up: key to Growth: NG: no growth; 0.5: low growth; 1: moderate growth; 2: good growth; key to Fluo.: fluorescence of the colonies / Col.: color of the colonies: —: no color/fluorescence; conditions: 40 mg substrate in 400 ml Columbia medium, 24 hours at 37° C.; for Fluo.: fluorescence of the colonies: UV lamp at 365 nm; for Col.: color of the colonies: examined visually
Description: as §1

[13] = tested on: Streptococcus pyogenes NCTC 8 306; set-up: key to Growth: NG: no growth; 0.5: low growth; 1: moderate growth; 2: good growth; key to Fluo.: fluorescence of the colonies / Col.: color of the colonies: —: no color/fluorescence; conditions: 40 mg substrate in 400 ml Columbia medium, 24 hours at 37° C.; for Fluo.: fluorescence of the colonies: UV lamp at 365 nm; for Col.: color of the colonies: examined visually
Description: as §1

[14] = tested on: Yersinia enterocolitica NCTC 11 176; set-up: key to Growth: NG: no growth; 0.5: low growth; 1: moderate growth; 2: good growth; key to Fluo.: fluorescence of the colonies / Col.: color of the colonies: —: no color/fluorescence; conditions: 40 mg substrate in 400 ml Columbia medium, 24 hours at 37° C.; for Fluo.: fluorescence of the colonies: UV lamp at 365 nm; for Col.: color of the colonies: examined visually
Description: as §1

[15] = tested on: Enterobacter cloacae NCTC 11 936; set-up: key to Growth: NG: no growth; 0.5: low growth; 1: moderate growth; 2: good growth; key to Col.: color of the colonies: —: no color/fluorescence; conditions: 40 mg substrate in 400 ml Columbia medium, 24 hours at 37° C.
Description: as §1

[16] = tested on: Escherichia coli NCTC 10 418; set-up: key to Growth: NG: no growth; 0.5: low growth; 1: moderate growth; 2: good growth; key to Col.: color of the colonies: —: no color/fluorescence; conditions: 40 mg substrate in 400 ml Columbia medium, 24 hours at 37° C.
Description: as §1

[17] = tested on: Serratia marcescens NCTC 10 211; set-up: key to Growth: NG: no growth; 0.5: low growth; 1: moderate growth; 2: good growth; key to Col.: color of the colonies: —: no color/fluorescence; conditions: 40 mg substrate in 400 ml Columbia medium, 24 hours at 37° C.
Description: as §1

COc1cc([N+](=O)[O-])ccc1C=Cc1cc[n+](C)c2ccccc12.[I-] [4NMSMQ^+I, 4-(4′-nitro-2′-methoxystyryl)-N-methylquinolinium iodide]
1: Growth [8] | Growth [9] | Growth [13]
NG: Growth [3]
2: Growth [1] | Growth [4] | Growth [6] | Growth [10] | Growth [11] | Growth [12] | Growth [14] | Growth [15] | Growth [16] | Growth [17]
0.5: Growth [2] | Growth [5] | Growth [7]
—: Fluo.: fluorescence of the colonies [1] | Fluo.: fluorescence of the colonies [2] | Col.: color of the colonies [2] | Fluo.: fluorescence of the colonies [3] | Col.: color of the colonies [3] | Fluo.: fluorescence of the colonies [4] | Fluo.: fluorescence of the colonies [5] | Col.: color of the colonies [5] | Fluo.: fluorescence of the colonies [6] | Col.: color of the colonies [6] | Fluo.: fluorescence of the colonies [7] | Col.: color of the colonies [7] | Fluo.: fluorescence of the colonies [8] | Col.: color of the colonies [8] | Fluo.: fluorescence of the colonies [9] | Col.: color of the colonies [9] | Fluo.: fluorescence of the colonies [10] | Fluo.: fluorescence of the colonies [11] | Fluo.: fluorescence of the colonies [12] | Fluo.: fluorescence of the colonies [13] | Col.: color of the colonies [13] | Fluo.: fluorescence of the colonies [14] | Col.: color of the colonies [14]

C[n+]1c(C=Cc2ccc([N+](=O)[O-])cc2)ccc2ccccc21.[I-] [2NSMQ^+I, 2-(4′-nitrostyryl)-N-methylquinolinium iodide]
0.5: Growth [2] | Growth [12] | Growth [13]
—: Col.: color of the colonies [2] | Col.: color of the colonies [3] | Col.: color of the colonies [10] | Col.: color of the colonies [11] | Col.: color of the colonies [12]
1: Growth [1] | Growth [4] | Growth [5] | Growth [6]
NG: Growth [3] | Growth [10] | Growth [11]
Rust: Col.: color of the colonies [7] | Col.: color of the colonies [14]
2: Growth [7] | Growth [8] | Growth [9] | Growth [14] | Growth [15] | Growth [16] | Growth [17]

O=[N+]([O-])c1ccc(C=Cc2ccc3ccccc3n2)cc1 [2NSQ, 2-(4′-nitrostyryl)quinoline]
—: Fluo.: fluorescence of the colonies [1] | Col.: color of the colonies ([1]; examined visually) | Fluo.: fluorescence of the colonies [2] | Col.: color of the colonies [2] | Fluo.: fluorescence of the colonies [3] | Col.: color of the colonies [3] | Fluo.: fluorescence of the colonies [4] | Col.: color of the colonies ([4]; examined visually) | Fluo.: fluorescence of the colonies [5] | Col.: color of the colonies [5] | Fluo.: fluorescence of the colonies [6] | Col.: color of the colonies [6] | Fluo.: fluorescence of the colonies [7] | Col.: color of the colonies [7] | Fluo.: fluorescence of the colonies [8] | Col.: color of the colonies [8] | Fluo.: fluorescence of the colonies [9] | Col.: color of the colonies [9] | Fluo.: fluorescence of the colonies [10] | Col.: color of the colonies [10] | Fluo.: fluorescence of the colonies [11] | Col.: color of the colonies [11] | Fluo.: fluorescence of the colonies [12] | Col.: color of the colonies [12] | Fluo.: fluorescence of the colonies [13] | Col.: color of the colonies [13] | Fluo.: fluorescence of the colonies [14] | Col.: color of the colonies [14] | Col.: color of the colonies ([15]; examined visually) | Col.: color of the colonies ([16]; examined visually) | Col.: color of the colonies ([17]; examined visually)
1: Growth [1] | Growth [3] | Growth [4] | Growth [5] | Growth [6] | Growth [10] | Growth [11] | Growth [12] | Growth [13]
0.5: Growth [2]
2: Growth [7] | Growth [8] | Growth [9] | Growth [14] | Growth [15] | Growth [16] | Growth [17]
